Experimental data taken from PMC12586182 (Frontiers in Oncology, 2025).

Legend:
[1] = target: T1, TIE2 (Homo sapiens, UniProt Q02763); test: Kinase panel profiling at 1 µmol/L (mobility shift assay, Carna); type: biochemical; details: 1 µmol/L of BTK inhibitor
T1 construct: purchased Carna Biosciences

[2] = target: T2, PKN1 (Homo sapiens, UniProt Q16512); test: as above; type: biochemical; details: 1 µmol/L of BTK inhibitor
T2 construct: purchased Carna Biosciences

[3] = target: T3, CK1δ (Homo sapiens, UniProt P48730); test: as above; type: biochemical; details: 1 µmol/L of BTK inhibitor
T3 construct: purchased Carna Biosciences

[4] = target: T4, AurA/TPX2 (Homo sapiens, UniProt O14965); test: as above; type: biochemical; details: 1 µmol/L of BTK inhibitor
T4 construct: purchased Carna Biosciences
T4 sequence (O14965 1-403): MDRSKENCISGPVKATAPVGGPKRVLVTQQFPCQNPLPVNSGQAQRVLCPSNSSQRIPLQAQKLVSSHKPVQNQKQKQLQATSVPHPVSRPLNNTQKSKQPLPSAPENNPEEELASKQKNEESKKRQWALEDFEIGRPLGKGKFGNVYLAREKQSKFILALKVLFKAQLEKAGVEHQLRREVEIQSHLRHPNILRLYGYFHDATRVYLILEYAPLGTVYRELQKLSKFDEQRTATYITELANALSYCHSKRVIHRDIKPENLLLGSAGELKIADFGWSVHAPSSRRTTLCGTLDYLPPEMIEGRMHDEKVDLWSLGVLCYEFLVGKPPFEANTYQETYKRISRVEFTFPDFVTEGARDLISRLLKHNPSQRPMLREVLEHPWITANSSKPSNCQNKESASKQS
T4 sequence (Q9ULW0 1-43 partner limits assumed): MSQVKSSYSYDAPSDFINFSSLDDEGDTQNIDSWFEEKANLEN

[5] = target: T5, PIM3 (Homo sapiens, UniProt Q86V86); test: as above; type: biochemical; details: 1 µmol/L of BTK inhibitor
T5 construct: purchased Carna Biosciences

[6] = target: T6, PLK1 (Homo sapiens, UniProt P53350); test: as above; type: biochemical; details: 1 µmol/L of BTK inhibitor
T6 construct: purchased Carna Biosciences
T6 sequence (P53350 whole entry): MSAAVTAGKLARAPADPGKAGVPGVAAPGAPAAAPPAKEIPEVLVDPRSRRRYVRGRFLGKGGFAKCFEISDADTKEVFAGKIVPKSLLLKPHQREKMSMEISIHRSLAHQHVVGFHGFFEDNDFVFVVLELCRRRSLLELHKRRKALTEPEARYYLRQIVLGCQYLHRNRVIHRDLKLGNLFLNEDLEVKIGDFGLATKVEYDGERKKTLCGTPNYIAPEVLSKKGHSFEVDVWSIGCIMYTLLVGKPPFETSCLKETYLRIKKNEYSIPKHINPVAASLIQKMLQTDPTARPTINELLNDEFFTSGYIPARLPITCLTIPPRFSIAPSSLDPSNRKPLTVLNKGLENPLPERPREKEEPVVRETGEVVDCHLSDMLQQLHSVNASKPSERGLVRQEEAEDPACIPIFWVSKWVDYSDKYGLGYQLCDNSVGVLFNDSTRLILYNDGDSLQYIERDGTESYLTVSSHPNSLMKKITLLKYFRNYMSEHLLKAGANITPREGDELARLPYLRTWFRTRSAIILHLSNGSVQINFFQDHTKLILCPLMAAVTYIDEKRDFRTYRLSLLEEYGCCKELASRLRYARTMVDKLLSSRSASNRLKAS

[7] = target: T7, NEK4 (Homo sapiens, UniProt P51957); test: as above; type: biochemical; details: 1 µmol/L of BTK inhibitor
T7 construct: purchased Carna Biosciences
T7 sequence (P51957 whole entry): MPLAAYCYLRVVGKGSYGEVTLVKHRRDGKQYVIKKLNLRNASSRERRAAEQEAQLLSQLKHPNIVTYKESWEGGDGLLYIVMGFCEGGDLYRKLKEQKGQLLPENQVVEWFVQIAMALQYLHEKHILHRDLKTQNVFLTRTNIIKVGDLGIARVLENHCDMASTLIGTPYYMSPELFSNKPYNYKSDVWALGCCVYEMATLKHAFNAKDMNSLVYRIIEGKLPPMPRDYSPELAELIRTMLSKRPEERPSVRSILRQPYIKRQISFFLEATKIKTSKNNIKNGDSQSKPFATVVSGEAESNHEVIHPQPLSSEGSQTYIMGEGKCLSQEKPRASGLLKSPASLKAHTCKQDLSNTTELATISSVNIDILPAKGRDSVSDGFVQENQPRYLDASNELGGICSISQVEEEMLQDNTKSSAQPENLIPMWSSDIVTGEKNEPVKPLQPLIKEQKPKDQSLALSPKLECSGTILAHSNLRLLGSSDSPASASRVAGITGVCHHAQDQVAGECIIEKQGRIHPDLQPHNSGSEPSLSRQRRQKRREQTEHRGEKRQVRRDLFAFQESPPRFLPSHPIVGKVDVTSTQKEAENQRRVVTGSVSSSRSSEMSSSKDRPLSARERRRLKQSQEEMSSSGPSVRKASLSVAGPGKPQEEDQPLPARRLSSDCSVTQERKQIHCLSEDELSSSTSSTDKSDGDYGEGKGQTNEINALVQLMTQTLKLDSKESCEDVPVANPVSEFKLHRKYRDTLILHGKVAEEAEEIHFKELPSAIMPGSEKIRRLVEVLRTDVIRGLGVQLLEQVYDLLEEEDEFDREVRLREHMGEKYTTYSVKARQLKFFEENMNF

[8] = target: FGFR4 (Homo sapiens, UniProt P22455); test: Kinase enzyme activity assay (mobility shift assay, Carna); details: for Percentage inhibition of kinase enzyme activity: FGFR4, 1 µmol/L of BTK inhibitor
[9] = target: T8, PKACγ (Homo sapiens, UniProt P22612); test: Kinase panel profiling at 1 µmol/L (mobility shift assay, Carna); type: biochemical; details: 1 µmol/L of BTK inhibitor
T8 construct: purchased Carna Biosciences
T8 sequence (P22612 whole entry): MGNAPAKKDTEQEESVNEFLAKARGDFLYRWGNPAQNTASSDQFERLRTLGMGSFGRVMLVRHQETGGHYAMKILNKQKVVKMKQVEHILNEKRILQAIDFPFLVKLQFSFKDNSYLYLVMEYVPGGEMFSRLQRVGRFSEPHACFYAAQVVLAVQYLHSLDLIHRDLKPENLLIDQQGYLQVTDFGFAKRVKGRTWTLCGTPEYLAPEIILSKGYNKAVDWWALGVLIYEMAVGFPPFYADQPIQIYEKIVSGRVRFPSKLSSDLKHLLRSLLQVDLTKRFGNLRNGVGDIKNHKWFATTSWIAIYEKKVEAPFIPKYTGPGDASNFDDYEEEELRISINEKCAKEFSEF

[10] = target: T9, GSK3α (Homo sapiens, UniProt P49840); test: as above; type: biochemical; details: 1 µmol/L of BTK inhibitor
T9 construct: purchased Carna Biosciences

[11] = target: T10, MARK4 (Homo sapiens, UniProt Q96L34); test: as above; type: biochemical; details: 1 µmol/L of BTK inhibitor
T10 construct: purchased Carna Biosciences
T10 sequence (Q96L34 1-752): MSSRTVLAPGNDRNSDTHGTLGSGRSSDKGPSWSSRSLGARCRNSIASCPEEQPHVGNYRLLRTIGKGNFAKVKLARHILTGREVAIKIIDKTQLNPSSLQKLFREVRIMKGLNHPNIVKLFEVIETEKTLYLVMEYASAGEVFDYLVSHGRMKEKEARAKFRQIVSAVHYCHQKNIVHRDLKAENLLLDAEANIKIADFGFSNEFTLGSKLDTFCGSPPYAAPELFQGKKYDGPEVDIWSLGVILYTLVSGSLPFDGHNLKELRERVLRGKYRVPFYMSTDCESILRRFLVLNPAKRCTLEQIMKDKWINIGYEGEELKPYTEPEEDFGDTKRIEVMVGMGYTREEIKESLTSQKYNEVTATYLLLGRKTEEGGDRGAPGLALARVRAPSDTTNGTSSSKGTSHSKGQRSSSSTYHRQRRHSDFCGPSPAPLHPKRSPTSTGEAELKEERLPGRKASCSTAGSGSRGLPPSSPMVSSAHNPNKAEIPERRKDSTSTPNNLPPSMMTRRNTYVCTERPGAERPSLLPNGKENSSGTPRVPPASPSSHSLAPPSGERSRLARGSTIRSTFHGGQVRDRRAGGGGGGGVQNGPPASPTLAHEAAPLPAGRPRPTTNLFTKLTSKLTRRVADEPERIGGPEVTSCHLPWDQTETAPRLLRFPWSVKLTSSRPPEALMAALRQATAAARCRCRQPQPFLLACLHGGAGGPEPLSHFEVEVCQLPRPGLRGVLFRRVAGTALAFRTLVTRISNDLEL

[12] = target: T11, IKKε (Homo sapiens, UniProt Q14164); test: as above; type: biochemical; details: 1 µmol/L of BTK inhibitor
T11 construct: purchased Carna Biosciences
T11 sequence (Q14164 1-716): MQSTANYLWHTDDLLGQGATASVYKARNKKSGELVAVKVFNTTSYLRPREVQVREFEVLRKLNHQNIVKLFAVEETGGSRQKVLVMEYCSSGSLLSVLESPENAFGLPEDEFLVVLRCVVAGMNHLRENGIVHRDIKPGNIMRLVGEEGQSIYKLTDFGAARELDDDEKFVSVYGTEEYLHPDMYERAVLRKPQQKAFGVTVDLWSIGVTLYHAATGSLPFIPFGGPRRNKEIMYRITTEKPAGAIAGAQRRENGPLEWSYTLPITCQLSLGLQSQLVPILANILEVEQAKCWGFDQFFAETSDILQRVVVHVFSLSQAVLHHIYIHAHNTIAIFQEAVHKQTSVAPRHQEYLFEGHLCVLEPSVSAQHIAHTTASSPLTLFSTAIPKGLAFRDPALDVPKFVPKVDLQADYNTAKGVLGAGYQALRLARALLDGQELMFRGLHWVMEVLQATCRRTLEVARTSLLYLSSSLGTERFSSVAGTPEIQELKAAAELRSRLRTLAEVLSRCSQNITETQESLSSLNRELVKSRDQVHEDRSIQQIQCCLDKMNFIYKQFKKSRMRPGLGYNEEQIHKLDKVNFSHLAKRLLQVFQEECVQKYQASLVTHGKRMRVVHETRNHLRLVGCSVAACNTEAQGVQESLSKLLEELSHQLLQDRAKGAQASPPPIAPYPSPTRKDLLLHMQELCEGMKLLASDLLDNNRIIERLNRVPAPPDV

[13] = target: T12, JAK2 (Homo sapiens, UniProt O60674); test: as above; type: biochemical; details: 1 µmol/L of BTK inhibitor
T12 construct: purchased Carna Biosciences

[14] = target: T13, PKACα (Homo sapiens, UniProt P17612); test: as above; type: biochemical; details: 1 µmol/L of BTK inhibitor
T13 construct: purchased Carna Biosciences

[15] = target: T14, ALK (Homo sapiens, UniProt Q9UM73); test: as above; type: biochemical; details: 1 µmol/L of BTK inhibitor
T14 construct: purchased Carna Biosciences
T14 sequence (Q9UM73 19-1620): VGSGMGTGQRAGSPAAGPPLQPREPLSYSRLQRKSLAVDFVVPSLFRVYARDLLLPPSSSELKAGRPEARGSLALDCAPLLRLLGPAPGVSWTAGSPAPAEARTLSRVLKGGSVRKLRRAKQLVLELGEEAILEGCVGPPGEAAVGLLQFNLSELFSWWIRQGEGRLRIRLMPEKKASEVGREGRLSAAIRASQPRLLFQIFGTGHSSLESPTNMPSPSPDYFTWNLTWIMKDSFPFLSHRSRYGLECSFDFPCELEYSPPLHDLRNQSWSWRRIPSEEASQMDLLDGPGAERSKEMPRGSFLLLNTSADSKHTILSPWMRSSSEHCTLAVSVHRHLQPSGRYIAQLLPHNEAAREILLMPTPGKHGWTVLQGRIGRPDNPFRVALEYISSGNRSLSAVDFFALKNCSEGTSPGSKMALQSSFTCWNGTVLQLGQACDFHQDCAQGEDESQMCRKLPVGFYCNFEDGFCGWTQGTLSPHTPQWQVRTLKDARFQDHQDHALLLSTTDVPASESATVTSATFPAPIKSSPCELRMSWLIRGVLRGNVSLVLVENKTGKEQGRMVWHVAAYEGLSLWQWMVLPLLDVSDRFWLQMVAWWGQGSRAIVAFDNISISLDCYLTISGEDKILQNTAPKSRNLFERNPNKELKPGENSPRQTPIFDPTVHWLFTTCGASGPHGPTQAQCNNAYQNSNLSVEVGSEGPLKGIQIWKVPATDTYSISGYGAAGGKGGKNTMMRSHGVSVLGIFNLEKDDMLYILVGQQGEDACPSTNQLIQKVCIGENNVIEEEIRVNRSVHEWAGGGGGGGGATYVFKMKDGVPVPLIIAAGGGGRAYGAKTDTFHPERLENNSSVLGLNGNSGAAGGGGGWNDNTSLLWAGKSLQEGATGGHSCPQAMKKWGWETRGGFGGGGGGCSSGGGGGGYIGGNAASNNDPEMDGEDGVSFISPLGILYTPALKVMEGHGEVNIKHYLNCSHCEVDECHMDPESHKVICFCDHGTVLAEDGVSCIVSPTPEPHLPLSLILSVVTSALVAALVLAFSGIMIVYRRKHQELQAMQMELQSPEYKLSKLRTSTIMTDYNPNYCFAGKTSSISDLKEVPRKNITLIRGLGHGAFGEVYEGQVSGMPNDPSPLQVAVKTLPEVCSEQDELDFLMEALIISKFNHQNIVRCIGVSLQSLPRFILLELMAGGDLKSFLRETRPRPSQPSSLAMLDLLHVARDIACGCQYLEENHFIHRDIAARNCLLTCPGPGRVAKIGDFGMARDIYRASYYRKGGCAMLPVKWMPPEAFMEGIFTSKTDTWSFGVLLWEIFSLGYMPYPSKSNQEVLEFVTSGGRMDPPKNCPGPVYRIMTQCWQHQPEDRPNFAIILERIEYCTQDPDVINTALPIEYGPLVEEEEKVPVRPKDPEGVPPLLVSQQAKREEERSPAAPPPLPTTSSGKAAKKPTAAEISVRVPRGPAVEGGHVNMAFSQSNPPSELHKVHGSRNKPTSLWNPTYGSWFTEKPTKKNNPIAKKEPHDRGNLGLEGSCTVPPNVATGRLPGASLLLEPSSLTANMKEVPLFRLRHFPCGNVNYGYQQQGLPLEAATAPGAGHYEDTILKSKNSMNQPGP

[16] = target: T15, PAK1 (Homo sapiens, UniProt Q13153); test: as above; type: biochemical; details: 1 µmol/L of BTK inhibitor
T15 construct: purchased Carna Biosciences

[17] = target: T16, CaMK1δ (Homo sapiens, UniProt Q8IU85); test: as above; type: biochemical; details: 1 µmol/L of BTK inhibitor
T16 construct: purchased Carna Biosciences
T16 sequence (Q8IU85 whole entry): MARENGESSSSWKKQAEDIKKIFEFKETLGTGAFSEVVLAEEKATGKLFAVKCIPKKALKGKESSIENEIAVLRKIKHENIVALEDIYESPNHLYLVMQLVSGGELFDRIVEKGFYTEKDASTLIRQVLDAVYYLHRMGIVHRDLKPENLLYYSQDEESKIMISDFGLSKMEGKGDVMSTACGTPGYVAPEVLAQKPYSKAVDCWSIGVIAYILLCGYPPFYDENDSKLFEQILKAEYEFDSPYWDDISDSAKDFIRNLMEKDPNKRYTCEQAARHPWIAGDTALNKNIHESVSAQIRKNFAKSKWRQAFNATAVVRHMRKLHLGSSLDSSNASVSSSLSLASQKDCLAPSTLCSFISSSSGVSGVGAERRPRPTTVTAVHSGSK

T1 sequence (Q02763 23-1124): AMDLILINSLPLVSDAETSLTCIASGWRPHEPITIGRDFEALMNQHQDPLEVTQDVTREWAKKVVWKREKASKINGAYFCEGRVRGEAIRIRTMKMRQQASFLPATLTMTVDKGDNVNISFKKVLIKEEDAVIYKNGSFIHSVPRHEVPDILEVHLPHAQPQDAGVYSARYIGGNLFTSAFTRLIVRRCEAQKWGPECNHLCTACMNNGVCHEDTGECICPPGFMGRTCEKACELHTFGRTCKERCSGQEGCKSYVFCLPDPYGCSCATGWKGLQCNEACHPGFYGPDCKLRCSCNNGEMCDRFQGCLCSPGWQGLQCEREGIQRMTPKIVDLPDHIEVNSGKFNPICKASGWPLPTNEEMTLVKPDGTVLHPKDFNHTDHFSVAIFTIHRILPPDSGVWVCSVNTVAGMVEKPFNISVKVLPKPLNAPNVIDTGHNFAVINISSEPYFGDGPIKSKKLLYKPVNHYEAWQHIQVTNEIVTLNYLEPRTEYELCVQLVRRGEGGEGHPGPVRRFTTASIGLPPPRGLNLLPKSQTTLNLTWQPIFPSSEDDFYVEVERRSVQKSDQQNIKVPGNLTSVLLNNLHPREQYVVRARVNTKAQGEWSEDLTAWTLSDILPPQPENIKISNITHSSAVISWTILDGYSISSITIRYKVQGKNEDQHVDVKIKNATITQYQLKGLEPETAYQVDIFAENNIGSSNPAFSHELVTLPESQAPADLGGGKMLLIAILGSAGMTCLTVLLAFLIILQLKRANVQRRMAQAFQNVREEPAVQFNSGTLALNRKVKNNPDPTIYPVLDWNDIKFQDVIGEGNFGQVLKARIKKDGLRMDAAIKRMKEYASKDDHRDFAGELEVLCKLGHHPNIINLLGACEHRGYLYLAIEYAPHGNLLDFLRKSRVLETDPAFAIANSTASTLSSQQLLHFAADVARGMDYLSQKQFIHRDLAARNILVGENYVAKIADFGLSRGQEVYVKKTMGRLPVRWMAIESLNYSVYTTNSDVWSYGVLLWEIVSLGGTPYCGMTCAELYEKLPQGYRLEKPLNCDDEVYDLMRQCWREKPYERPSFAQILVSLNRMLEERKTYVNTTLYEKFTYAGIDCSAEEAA

Structure (SMILES)	Percentage inhibition of kinase enzyme activity [1]	Percentage inhibition of kinase enzyme activity [2]	Percentage inhibition of kinase enzyme activity [3]	Percentage inhibition of kinase enzyme activity [4]	Percentage inhibition of kinase enzyme activity [5]	Percentage inhibition of kinase enzyme activity [6]	Percentage inhibition of kinase enzyme activity [7]	IC50 [8]	Percentage inhibition of kinase enzyme activity [8]	Percentage inhibition of kinase enzyme activity [9]	Percentage inhibition of kinase enzyme activity [10]	Percentage inhibition of kinase enzyme activity [11]	Percentage inhibition of kinase enzyme activity [12]	Percentage inhibition of kinase enzyme activity [13]	Percentage inhibition of kinase enzyme activity [14]	Percentage inhibition of kinase enzyme activity [15]	Percentage inhibition of kinase enzyme activity [16]	Percentage inhibition of kinase enzyme activity [17]
O=C(c1ccc(Oc2ccccc2)cc1Cl)c1c[nH]c2ncnc(N[C@@H]3CC[C@@H](CO)OC3)c12 [nemtabrutinib]	99.74%	5.57%	25.76%	4.98%	-5.55%	1.28%	7.11%	1.4 µM	1.97%	11.12%	-3.85%	20.90%	11.64%	14.34%	0.95%	50.65%	79.33%	9.32%
CC#CC(=O)N1CCC[C@H]1c1nc(-c2ccc(C(=O)Nc3ccccn3)cc2)c2c(N)nccn12 [acalabrutinib]	-5.36%	11.29%	2.76%	-4.71%	-0.0376%	-2.57%	-4.76%		-8.97%	1.68%	2.47%	-15.24%	1.46%	-9.14%	-5.14%	5.27%	-0.37%	-5.01%
COc1ccc(F)cc1C(=O)NCc1ccc(-c2nn([C@@H](C)C(F)(F)F)c(N)c2C(N)=O)cc1 [pirtobrutinib]	-3.49%	15.81%	6.20%	1.13%	1.44%	1.53%	-3.18%		1.27%	1.36%	-5.30%	-2.93%	5.28%	0.45%	-26.62%	6.67%	5.73%	2.74%
C=CC(=O)N1CCC([C@@H]2CCNc3c(C(N)=O)c(-c4ccc(Oc5ccccc5)cc4)nn32)CC1 [zanubrutinib]							0.95%		0.81%					9.66%				
C=CC(=O)N1CCC[C@@H](n2nc(-c3ccc(Oc4ccccc4)cc3)c3c(N)ncnc32)C1 [ibrutinib]	29.04%	8.58%	7.46%	-2.33%	-0.24%	-2.28%	4.65%		36.91%	4.90%	2.24%	-14.26%	-0.70%	0.41%	-10.78%	5.45%	6.57%	4.85%
